From US5478807A, “Use of relaxin in the treatment of bradycardia” (Genentech, Inc., priority 1992, dated 1995)
Read-outs that look alike come from different tables or passages of the source.

Legend:
[1] = target: T1, relaxin receptors in the atria of rat heart (Rattus norvegicus, UniProt Q6R6I6); assay: Displacement of 32P-relaxin binding in rat heart tissue sections (autoradiography); settings: for Kd: read-out: dissociation constant (Kd)
T1 construct: The frozen tissues were sectioned to 16 μm thickness; from tissue; host or cells: rat heart (right and left atrium) frozen sections, from normal and from hormone-treated gonadectomized rats
T1 sequence (Q6R6I6 1-758): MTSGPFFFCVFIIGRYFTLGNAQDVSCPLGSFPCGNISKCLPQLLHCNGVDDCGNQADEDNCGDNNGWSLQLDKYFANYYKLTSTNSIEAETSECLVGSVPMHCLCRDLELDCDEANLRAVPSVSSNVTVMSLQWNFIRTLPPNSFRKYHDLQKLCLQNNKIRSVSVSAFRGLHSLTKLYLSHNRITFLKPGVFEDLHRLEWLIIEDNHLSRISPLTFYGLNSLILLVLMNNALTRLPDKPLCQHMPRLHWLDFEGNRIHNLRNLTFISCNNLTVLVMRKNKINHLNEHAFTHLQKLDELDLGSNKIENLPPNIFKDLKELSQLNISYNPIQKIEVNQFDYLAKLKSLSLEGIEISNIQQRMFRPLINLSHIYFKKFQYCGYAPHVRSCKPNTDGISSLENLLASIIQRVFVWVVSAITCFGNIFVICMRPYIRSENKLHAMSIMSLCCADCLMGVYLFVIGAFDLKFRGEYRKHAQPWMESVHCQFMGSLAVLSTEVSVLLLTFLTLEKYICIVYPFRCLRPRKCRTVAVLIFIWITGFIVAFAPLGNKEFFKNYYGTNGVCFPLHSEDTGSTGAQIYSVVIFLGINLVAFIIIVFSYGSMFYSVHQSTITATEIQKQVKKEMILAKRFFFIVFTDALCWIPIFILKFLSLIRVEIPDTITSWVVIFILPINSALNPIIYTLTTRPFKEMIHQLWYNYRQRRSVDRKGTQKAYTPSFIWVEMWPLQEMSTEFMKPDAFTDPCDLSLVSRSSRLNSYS
Experimental: (§1) Ten-week-old normal male and cyclic female Sprague-Dawley rats (Charles River Breeding Laboratories, Wilmonton, Mass.) were used for binding specificity and binding displacement experiments. These were given food and water ad libidium and housed in a room with the ambient temperature controlled around 21° C.
For hormonal control experiments, 10-11-week-old female rats were ovariectomized for two weeks and then injected s.c. with 10 μg estradiol cyclopentyl propionate in a […] vehicle or with vehicle alone. Likewise, 10-11-week-old male rats were castrated for 2 weeks and were injected with either 10 μg estradiol cyclopentyl propionate, 10 μg testosterone, or vehicle alone. The rats were sacrificed 7 days later by asphyxiation with CO2. The relevant tissues were removed rapidly and frozen in powdered dry ice immediately.
(§2) The frozen tissues were sectioned to 16 μm thickness using a Reichert-Jung Model 2800 Frigocut cryostat (Cambridge Instruments). Tissue sections were fixed onto gelatin/chromium potassium sulfate treated microscope slides by warming, and immediately refrozen and stored at -80° C. overnight or longer.
For binding of ^32 P-relaxin to the tissue sections, frozen slides were prewashed with binding buffer (Hank's balanced salt solution supplemented with 20 mMHEPES, pH 7.2, 1 mg/ml BSA, 0.1 mM PMSF, and 1 μg/ml leupeptin) at 4° C. for 1.5-2 hours. The tissue sections were then covered with 600-700 μl of 100 pM ^32 P-relaxin with or without excess unlabeled relaxin and other competing agents as specificity control, and incubated at 4° C. for one hour. The slides were washed 3 times for 15-30 minutes each, with binding buffer. The slides were air-dried and mounted on filter paper and exposed to Hyperfilm-βMAX (Amersham) for 3-5 days.
Regions of binding were determined by overlaying the autoradiographs with adjacent sections counterstained with hematoxylin-eosin. For relaxin binding displacement experiments, consecutive 16 μm sections were incubated with 100 pM of ^32 P-relaxin in the absence and presence of increasing concentrations (serial three-fold increases) of unlabeled relaxin in the range of 0.1-100 nM. Pseudocolor reconstruction and quantitative analysis of ^32 P-relaxin binding autoradiographs were performed with a RAS-3000 image analysis system (Amersham). The OD or radioactivities (cpm) of bound ^32 P relaxin (maximum binding in a particular region) were quantified by computerized densitometry based on parallel sets of ^32 P-relaxin standards (ranging from 50 to 2000 cpm) blotted onto nitrocellulose membranes (Trans-Blot SF, Bio-Rad, Richmond, Calif.). The binding inhibition data were fit to a four parameter equation to obtain the ED50 (the concentration of unlabeled relaxin yielding 50% displacement of the binding of ^32 p-relaxin). The dissociation constant (Kd) for relaxin was calculated by the method of Cheng and Prusoff [Biochem. Pharmacol. 22, 3099-3108 (1973)].

[2] = target: T2, relaxin binding sites in the rat uterus (Rattus norvegicus, UniProt Q6R6I6); assay: Displacement of 32P-relaxin binding in rat uterus tissue sections (autoradiography)
T2 construct: The frozen tissues were sectioned to 16 μm thickness; from tissue; host or cells: rat uterus (uterine horn, cervix) frozen sections
T2 sequence (Q6R6I6 1-758): T1 sequence (Q6R6I6 1-758)
Experimental: as §1
as §2, with “longer. […]” for “longer.”
Regions of binding were determined by overlaying the autoradiographs with adjacent sections counterstained with hematoxylin-eosin. […] Pseudocolor reconstruction and quantitative analysis of ^32 P-relaxin binding autoradiographs were performed with a RAS-3000 image analysis system (Amersham). The OD or radioactivities (cpm) of bound ^32 P relaxin (maximum binding in a particular region) were quantified by computerized densitometry based on parallel sets of ^32 P-relaxin standards (ranging from 50 to 2000 cpm) blotted onto nitrocellulose membranes (Trans-Blot SF, Bio-Rad, Richmond, Calif.). […] The dissociation constant (Kd) for relaxin was calculated by the method of Cheng and Prusoff [Biochem. Pharmacol. 22, 3099-3108 (1973)].

displacement of the binding of 32P-relaxin ([1]; 100 nM unlabeled relaxin, atria of normal male rat heart): fully displaced | Kd ([1]; atria of estrogen-treated ovariectomized rat heart): 0.86 ± 0.35 nM | Kd ([1]; atria of normal female rat heart, displacement of 32P-H2 relaxin, mean±S.E. of two regions): 1.37 ± 0.13 nM | extent of displacement of 32P-relaxin binding ([1]; heart, increasing concentrations of unlabeled relaxin): total displacement | Kd ([2]; rat uterus (uterine horn, cervix), displacement of 100 pM 32P-relaxin, mean±S.E. of two regions, read-out: dissociation constant (Kd)): 1.3 ± 0.22 nM | extent of displacement of 32P-relaxin binding ([2]; uterus, increasing concentrations of unlabeled relaxin): partial displacement
Substance: relaxin
displacement of the binding of 100 pM 32P-relaxin ([1]; 100 nM competitor, normal female rat heart): displacement of the binding of 100 pM ^32 P-relaxin by 100 nM unlabeled relaxin
